Read-outs that look alike come from different tables or passages of the source.
What was measured:
Pasteurella multocida = test: Treatment of Pasteurella infections in chicks (Table V); type: in vivo, one-day-old chicks; settings: Pasteurella multocida, sc, 4 h; 30 mg/kg by subcutaneous injection one and four hours post challenge; read-out: Deaths in Treated Chicks/Number Treated (converted)
Procedure, shortened: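 One-day-old chicks challenged subcutaneously with avian P. multocida (0.1 ml of 10^-3 dilution of 20-hour tryptose broth culture). Esters given at 30 mg/kg subcutaneously at 1 and 4 hours post challenge. Untreated infected controls, ten per group.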

[1] = test system: Streptococcus pyogenes C203; test: ED50 in mice with experimental infections (Table IV); type: in vivo; settings: Streptococcus pyogenes, doses given 1 and 4 hours postinfection
Procedure, shortened: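 Mice with experimental infections received test compound twice, at 1 and 4 h postinfection. ED50 is the dose in mg/kg (per administration, ×2) protecting 50% of animals.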

[2] = test system: Staphylococcus aureus X1.1; test: MIC, standard agar-dilution assay (Table II); type: cell-based; set-up: unit not given here
Protocol: (§1) The MIC's in Table II were determined by standard agar-dilution assays. The MIC's in Table III were obtained using a conventional broth-dilution microtiter test.

[3] = test system: Streptococcus pyogenes C203; test: MIC, standard agar-dilution assay (Table II); type: cell-based; set-up: unit not given here
Protocol: as §1

[4] = test system: Staphylococcus epidermidis EPI1; test: MIC, standard agar-dilution assay (Table II); type: cell-based; set-up: unit not given here
Protocol: as §1

[5] = test system: Streptococcus Group D X66; test: MIC, standard agar-dilution assay (Table II); type: cell-based; set-up: unit not given here
Protocol: as §1

[6] = test system: Staphylococcus aureus V41; test: MIC, standard agar-dilution assay (Table II); type: cell-based; set-up: unit not given here; settings: Staphylococcus aureus V41, penicillin-resistant strain
Protocol: as §1

[7] = test system: Staphylococcus aureus S13E; test: MIC, standard agar-dilution assay (Table II); type: cell-based; set-up: unit not given here
Protocol: as §1

[8] = test system: Streptococcus pneumoniae Park I; test: MIC, standard agar-dilution assay (Table II); type: cell-based; set-up: unit not given here
Protocol: as §1

[9] = test system: Staphylococcus aureus X400; test: MIC, standard agar-dilution assay (Table II); type: cell-based; set-up: unit not given here; settings: Staphylococcus aureus X400, methicillin-resistant strain
Protocol: as §1

[10] = test system: Streptococcus Group D 9960; test: MIC, standard agar-dilution assay (Table II); type: cell-based; set-up: unit not given here
Protocol: as §1

[11] = test system: Staphylococcus epidermidis EPI2; test: MIC, standard agar-dilution assay (Table II); type: cell-based; set-up: unit not given here
Protocol: as §1

[12] = test system: Haemophilus influenzae Holt; test: MIC, standard agar-dilution assay (Table II); type: cell-based; set-up: unit not given here; settings: ampicillin-sensitive strain
Protocol: as §1

[13] = test system: Haemophilus influenzae R252; test: MIC, standard agar-dilution assay (Table II); type: cell-based; set-up: unit not given here; settings: Haemophilus influenzae R252, ampicillin-resistant strain
Protocol: as §1

Mycoplasma synoviae = test: MIC, broth-dilution microtiter test (Table III); type: cell-based; set-up: unit not given here
Protocol: as §1

Mycoplasma gallisepticum = test: MIC, broth-dilution microtiter test (Table III); type: cell-based; set-up: unit not given here
Protocol: as §1

[14] = test system: Pasteurella haemolytica 22C; test: MIC, broth-dilution microtiter test (Table III); type: cell-based; set-up: unit not given here
Protocol: as §1

[15] = test system: Pasteurella haemolytica 41D; test: MIC, broth-dilution microtiter test (Table III); type: cell-based; set-up: unit not given here
Protocol: as §1

[16] = test system: Pasteurella multocida 17E; test: MIC, broth-dilution microtiter test (Table III); type: cell-based; set-up: unit not given here; settings: bovine isolate
Protocol: as §1

[17] = test system: Pasteurella multocida 60A; test: MIC, broth-dilution microtiter test (Table III); type: cell-based; set-up: unit not given here; settings: avian isolate
Protocol: as §1

Staphylococcus aureus = test: MIC, broth-dilution microtiter test (Table III); type: cell-based; set-up: unit not given here
Protocol: as §1

[18] = test system: Pasteurella multocida 22A; test: MIC, broth-dilution microtiter test (Table III); type: cell-based; set-up: unit not given here
Protocol: as §1

Streptococcus sp. 80 = test: MIC, broth-dilution microtiter test (Table III); type: cell-based; set-up: unit not given here
Protocol: as §1

[19] = test system: Pasteurella multocida 68C; test: MIC, broth-dilution microtiter test (Table III); type: cell-based; set-up: unit not given here
Protocol: as §1

Mycoplasma hyorhinis = test: MIC, broth-dilution microtiter test (Table III); type: cell-based; set-up: unit not given here
Protocol: as §1

[20] = test system: Pasteurella haemolytica 23C; test: MIC, broth-dilution microtiter test (Table III); type: cell-based; set-up: unit not given here
Protocol: as §1

[21] = test system: Pasteurella multocida 40G; test: MIC, broth-dilution microtiter test (Table III); type: cell-based; set-up: unit not given here
Protocol: as §1

[22] = C203, oral, read-out: ED50, Oral
[23] = C203, sc, subcutaneous, read-out: ED50, Subcutaneous

Compound	mortality at 30 mg/kg (Pasteurella multocida) [%]	ED50 [1, 22] [mg/kg]	ED50 [1, 23] [mg/kg]	minimal inhibitory concentration (MIC) [2]	minimal inhibitory concentration (MIC) [3]	minimal inhibitory concentration (MIC) [4]	minimal inhibitory concentration (MIC) [5]	minimal inhibitory concentration (MIC) [6]	minimal inhibitory concentration (MIC) [7]	minimal inhibitory concentration (MIC) [8]	minimal inhibitory concentration (MIC) [9]	minimal inhibitory concentration (MIC) [10]	minimal inhibitory concentration (MIC) [11]	minimal inhibitory concentration (MIC) [12]	minimal inhibitory concentration (MIC) [13]	minimal inhibitory concentration (MIC) (Mycoplasma synoviae)	minimal inhibitory concentration (MIC) (Mycoplasma gallisepticum)	minimal inhibitory concentration (MIC) [14]	minimal inhibitory concentration (MIC) [15]	minimal inhibitory concentration (MIC) [16]	also measured
CCC1OC(=O)CC(O)C(C)C(OC2OC(C)C(O)C(N(C)C)C2OC(C)=O)C(CC=O)CC(C)C(=O)C=CC(C)=CC1COC(=O)C=Cc1ccccc1 (stereo not shown) [Compound 33]	80	146	9.7	0.5	0.25	0.5	1	0.5	0.5	0.125	0.5	1	0.5	4	4	0.39	0.05	12.5	12.5	3.12	minimal inhibitory concentration (MIC) [17]: 3.12; minimal inhibitory concentration (MIC) (Staphylococcus aureus): 0.39; minimal inhibitory concentration (MIC) [18]: 3.12; minimal inhibitory concentration (MIC) (Streptococcus sp. 80): 0.39; minimal inhibitory concentration (MIC) [19]: 3.12; minimal inhibitory concentration (MIC) (Mycoplasma hyorhinis): 0.78; minimal inhibitory concentration (MIC) [20]: 12.5; minimal inhibitory concentration (MIC) [21]: 3.12
CCC1OC(=O)CC(O)C(C)C(OC2OC(C)C(OC(C)=O)C(N(C)C)C2OC(C)=O)C(CC=O)CC(C)C(=O)C=CC(C)=CC1COC(C)=O (stereo not shown) [Compound 7, 2',4',23-Tri-O-acetyl-OMT]	50	100	> 15	0.5	0.5	0.5	1	1	1	0.125	1	1	0.5	2	8	0.39	0.39	6.25	6.25	3.12	minimal inhibitory concentration (MIC) [17]: 3.12; minimal inhibitory concentration (MIC) (Staphylococcus aureus): 0.78; minimal inhibitory concentration (MIC) [18]: 3.12; minimal inhibitory concentration (MIC) (Streptococcus sp. 80): 0.195; minimal inhibitory concentration (MIC) [19]: 1.56; minimal inhibitory concentration (MIC) (Mycoplasma hyorhinis): 3.12; minimal inhibitory concentration (MIC) [20]: 6.25; minimal inhibitory concentration (MIC) [21]: 1.56
CCC1OC(=O)CC(O)C(C)C(OC2OC(C)C(O)C(N(C)C)C2O)C(CC=O)CC(C)C(=O)C=CC(C)=CC1COC(=O)CCCC(=O)OC (stereo not shown) [Compound 72]	50	87	2.3	0.125	0.125	0.25	0.25	0.25	0.25	0.03	0.25	0.25	0.25	2	1	0.78	0.195	12.5	12.5	6.25	minimal inhibitory concentration (MIC) [17]: 3.12; minimal inhibitory concentration (MIC) (Staphylococcus aureus): 1.56; minimal inhibitory concentration (MIC) [18]: 3.12; minimal inhibitory concentration (MIC) (Streptococcus sp. 80): 1.56; minimal inhibitory concentration (MIC) [19]: 3.12; minimal inhibitory concentration (MIC) (Mycoplasma hyorhinis): 25; minimal inhibitory concentration (MIC) [20]: 6.25; minimal inhibitory concentration (MIC) [21]: 3.12
CCC1OC(=O)CC(O)C(C)C(OC2OC(C)C(O)C(N(C)C)C2O)C(CC=O)CC(C)C(=O)C=CC(C)=CC1COC(=O)NCc1ccccc1 (stereo not shown) [Compound 76]	100	> 100	25	0.125	0.06	0.125	0.25	0.125	0.125	0.015	0.25	0.125	0.125	0.5	1	< 0.048	0.097	6.25	3.12	6.25	minimal inhibitory concentration (MIC) [17]: 6.25; minimal inhibitory concentration (MIC) (Staphylococcus aureus): 0.39; minimal inhibitory concentration (MIC) [18]: > 50; minimal inhibitory concentration (MIC) (Streptococcus sp. 80): 0.39; minimal inhibitory concentration (MIC) [19]: 3.12; minimal inhibitory concentration (MIC) (Mycoplasma hyorhinis): 0.78; minimal inhibitory concentration (MIC) [20]: 3.12; minimal inhibitory concentration (MIC) [21]: 6.25

Reference: patent US4401660A, “Ester derivatives of 5-O-mycaminosyl tylonolide and method of using same” (Eli Lilly and Company, priority 1981, dated 1983)
